Patent publication US5736557A, “N,N-bis (quinolin-4-yl)-diamine derivatives, their preparation and their use as antimalarials” (Hoffman-La Roche, Inc., priority 1994, dated 1998)
≈ marks a conversion by molar mass, not a printed value. Where two headings read alike, the source gives them in different places.

How the values were obtained:
[1] = system: chloroquine-sensitive strains of the human-pathogenenic Plasmodium falciparum; assay: Growth inhibition of chloroquine-sensitive Plasmodium falciparum strains in vitro; type: cell-based
Protocol: (§1) Test Method for the Determination of the Activity Against Plasmodium falciparum in vitro
(§2) The preparations are tested on intraerythrocytary stages of Plasmodium falciparum from asynchronous cultures according to the method of Desjardin et al. (Desjardins, R. E. et al: Quantitative assessment of antimalarial activity in vitro by a semiautomated microdilution technique. Antimicrob. Agents Chemother. 16, 710-718, (1979)).
(§3) The culture medium consists of RPMI 1640 with the addition of 25 mM HEPES, 25 mM NaHCO3, 100 μg/ml neomycin and […] (A^+). Human-A^+ erythrocytes are used as the Plasmodium falciparum host cells. The parasites are maintained at 37° C. in an atmosphere of 3% O2, 4% CO2, 9:3% N2 and 95% relative humidity.
(§4) In order to determine the activity, the preparations are dissolved in dimethyl sulphoxide, pre-diluted in the culture medium to a suitable starting concentration and subsequently titrated-out on to microtitre plates in the 2nd stage over 6-7 steps. After the addition of the parasite culture (0.7% parasitemia in 2.5% erythrocyte suspension) the test plates are incubated under the conditions given above for 48 h-72 h. The parasite growth in the different preparation concentrations is determined using [G--^3 H]-hypoxanthin incorporation compared to untreated control cultures on the same test plates. The 50% growth inhibition (IC50) is calculated according to logit regression analysis from the resulting dosage-activity curve.
(§5) The preparations are tested on at least one chloroquine-resistant and one chloroquine-sensitive Plasmodium falciparum strain. Additional sensitive and resistant strains are included for futher characterization.

[2] = system: chloroquine-resistant strains of the human-pathogenic Plasmodium falciparum; assay: Growth inhibition of chloroquine-resistant Plasmodium falciparum strains in vitro; type: cell-based; conditions: for IC50: Plasmodium falciparum; for Resistance index: ratio of average IC50 values for resistant strains and average values for sensitive strains
Protocol: as §1, §2, §3, §4, §5

Plasmodium berghei = assay: Activity against Plasmodium berghei in vivo in mice; set-up: species or system Plasmodium berghei (strain ANKA) in mice; conditions: for ED50: read-out: ED50 po
Protocol: Test Method for the Determination of the Activity Against Plasmodium berghei in vivo
The preparations are tested on mice infected with malaria pathogens (Plasmodium berghei). Male albino mice (IBM:MORO(SPF), FUELLINSDORF) weighing about 25 g are used as the test animals. They are kept in climatized rooms at 21°-22° C. in groups of 5 animals per cage. They receive ad libitum a diet feed with a low PABA content (NAFAG FUTTER .COPYRGT. No. 9009 PAB-45, PABA content 45 mg/kg) and drinking water. On the first day of the test (DO) the test animals are infected with Plasmodium berghei (strain ANKA). For this there is used heparinized blood of a donor mouse with about 30% parasitemia, which is diluted with physiological saline such that it contains 10^8 parasitized erythrocytes per ml. 0.2 ml of this suspension is injected intravenously (i.v.) into the mice to be treated and into the control mice. In untreated control animals the parasitemia normally reaches 30-40% on the third day after the infection (D+3) and the test animals die between days +5 and +7.
The substances to be tested are dissolved or suspended in distilled water or in a mixture of 7% Tween 80, 3% alcohol (96%) and water. Usually, 0.25 ml of this solution or suspension is administered once subcutaneously and perorally to groups of 5 test animals. Treatment is effected 24 hours after the infection. 10 control animals are treated in the same manner with solvent or suspension medium per test.
All substances are tested in a first test in a single dosage of 10 mg/kg. Only those substances which in this test (10 mg/kg) have shown a parasitaemia reduction of 90% are used for the titration. Suitable dilutions of the test substance can be used to obtain an accurate titration of the activity.
48 hours after the treatment (D+3) blood smears are prepared from all animals using blood from tail veins and are stained with giemsa. The average erythrocyte infection rate (parasitemiea in %) in the control groups as well as in the groups which have been treated with the test compounds is determined by counting under a microscope. The difference in the average values of the infection rates of control group (100%) and treated groups is calculated and expressed as a percentage reduction (GI%). The ED50 or ED90 is determined mathematically by means of the JMP programme (nonlinear fit). The ED50 (ED90) in mg/kg is that dose which after single administration reduces the average erythrocyte infection rate by 50% (90%) in comparison to the control group.

[3] = HB3, strain HB3, chloroquine-sensitive, read-out: IC50 growth inhibition
[4] = NF54, read-out: IC50 growth inhibition, strain NF54, chloroquine-sensitive
[5] = read-out: IC50 growth inhibition, strain Ro73, chloroquine-sensitive
[6] = strain FCH5C2, chloroquine-sensitive, read-out: IC50 growth inhibition
[7] = strain RFMEF3, chloroquine-sensitive, read-out: IC50 growth inhibition
[8] = read-out: IC50 growth inhibition, strain 7G8, chloroquine-resistant
[9] = read-out: IC50 growth inhibition, strain Indo, chloroquine-resistant
[10] = read-out: IC50 growth inhibition, strain ItG2F6, chloroquine-resistant
[11] = read-out: IC50 growth inhibition, strain K1, chloroquine-resistant
[12] = read-out: IC50 growth inhibition, strain RFCF3, chloroquine-resistant
[13] = read-out: IC50 growth inhibition, strain W2, chloroquine-resistant
[14] = read-out: IC50 growth inhibition, strain W2 Mef, chloroquine-resistant
[15] = po, percentage parasitemia reduction, single peroral dose 10 mg/kg, mice, read-out: GI % at 10 mg/kg po
[16] = po, single peroral administration, mice
[17] = sc, percentage parasitemia reduction, single subcutaneous dose 10 mg/kg, mice, read-out: GI % at 10 mg/kg sc
[18] = read-out: IC50 growth inhibition, strain RFMEF3, chloroquine-sensitive
[19] = NF54, strain NF54, chloroquine-sensitive, read-out: IC50 growth inhibition
[20] = strain Ro73, chloroquine-sensitive, read-out: IC50 growth inhibition

Row | Structure (SMILES) | IC50 [1, 3] [ng/mL] | IC50 [1, 6] [ng/mL] | IC50 [1, 7] [ng/mL] | IC50 [2, 8] [ng/mL] | IC50 [2, 9] [ng/mL] | IC50 [2, 10] [ng/mL] | IC50 [2, 11] [ng/mL] | IC50 [2, 12] [ng/mL] | IC50 [2, 13] [ng/mL] | IC50 [2, 14] [ng/mL] | Resistance index [2] | inhibition in vivo at 10 mg/kg (Plasmodium berghei; [15]) [%] | inhibition in vivo at 10 mg/kg (Plasmodium berghei; [17]) [%] | IC50 [1, 19] [ng/mL] | IC50 [1, 20] [ng/mL] | also measured
1 | Clc1ccc2c(N[C@@H]3CCC[C@H](Nc4ccnc5cc(Cl)ccc45)C3)ccnc2c1 [Example 6, cis-N,N'-Bis-(7-chloroquinolin-4-yl)-cyclohexane-1,3-diamine] | 5.2 (≈ 0.0119 µM) | 6.4 (≈ 0.0146 µM) | 4.8 (≈ 0.011 µM) | 3.8 (≈ 0.00869 µM) | 3 (≈ 0.00686 µM) | 4.1 (≈ 0.00937 µM) | 4.4 (≈ 0.0101 µM) | 4.2 (≈ 0.0096 µM) | 4 (≈ 0.00915 µM) | 7.6 (≈ 0.0174 µM) | 1.0 | 98 | 99.9 | – | – | IC50 [1, 4]: 3.8 ng/mL (≈ 0.00869 µM); IC50 [1, 5]: 3 ng/mL (≈ 0.00686 µM); ED50 (Plasmodium berghei; [16]): 1.7 mg/kg
2 | CCN(CC)CCCC(C)Nc1ccnc2cc(Cl)ccc12 (stereo not shown) [Chloroquine, reference compound] | – | – | – | 81 (≈ 0.253 µM) | 52 (≈ 0.163 µM) | 68 (≈ 0.213 µM) | 114 (≈ 0.356 µM) | 130 (≈ 0.406 µM) | – | 79 (≈ 0.247 µM) | 8.7 | – | – | – | – | IC50 ([1]; HB3, read-out: IC50 growth inhibition, strain HB3, chloroquine-sensitive): 11.3 ng/mL (≈ 0.0353 µM); IC50 [1, 4]: 7.6 ng/mL (≈ 0.0238 µM); IC50 ([1]; read-out: IC50 growth inhibition, strain FCH5C2, chloroquine-sensitive): 12.2 ng/mL (≈ 0.0381 µM); IC50 [1, 18]: 14.2 ng/mL (≈ 0.0444 µM); IC50 [1, 5]: 8 ng/mL (≈ 0.025 µM); ED50 (Plasmodium berghei; po): 2 mg/kg; inhibition in vivo at 10 mg/kg (Plasmodium berghei; po, read-out: GI % at 10 mg/kg po): 99.9%; inhibition in vivo at 10 mg/kg (Plasmodium berghei; sc, read-out: GI % at 10 mg/kg sc): 99.9%
3 | Clc1ccc2c(N[C@H]3CCC[C@H](Nc4ccnc5cc(Cl)ccc45)C3)ccnc2c1 (relative stereo) [Example 7, ±-trans-N,N'-Bis-(7-chloroquinolin-4-yl)-cyclohexane-1,3-diamine] | – | – | – | – | – | – | 10.5 (≈ 0.024 µM) | – | – | – | – | 97 | 99 | 10.7 (≈ 0.0245 µM) | – | –
4 | Clc1ccc2c(NCC3CCCC(CNc4ccnc5cc(Cl)ccc45)C3)ccnc2c1 (stereo not shown) [Example 11, (7-Chloroquinolin-4-yl)-[3-(7-chloroquinolin-4-yl-aminomethyl)-cyclohexylmethyl]-amine] | 12.7 (≈ 0.0273 µM) | 14.5 (≈ 0.0312 µM) | 16.8 (≈ 0.0361 µM) | 20.5 (≈ 0.044 µM) | 14.4 (≈ 0.0309 µM) | 11.6 (≈ 0.0249 µM) | 17.8 (≈ 0.0382 µM) | 14.1 (≈ 0.0303 µM) | 9.9 (≈ 0.0213 µM) | 15.9 (≈ 0.0342 µM) | 1.1 | 28 | 99.6 | 17.2 (≈ 0.037 µM) | 4.9 (≈ 0.0105 µM) | –
5 | Clc1ccc2c(NCc3ccc(CNc4ccnc5cc(Cl)ccc45)cc3)ccnc2c1 [Example 3, (7-Chloroquinolin-4-yl)-[4-(7-chloroquinolin-4-yl-aminomethyl)-benzyl]-amine] | 4.6 (≈ 0.01 µM) | 12.7 (≈ 0.0276 µM) | 12.5 (≈ 0.0272 µM) | 6.8 (≈ 0.0148 µM) | 2.9 (≈ 0.00631 µM) | 7.9 (≈ 0.0172 µM) | 9.1 (≈ 0.0198 µM) | 5.7 (≈ 0.0124 µM) | 5 (≈ 0.0109 µM) | 9.7 (≈ 0.0211 µM) | 0.7 | 99.9 | 99.9 | 9.6 (≈ 0.0209 µM) | 7.4 (≈ 0.0161 µM) | ED50 (Plasmodium berghei; [16]): 2.5 mg/kg
6 | Clc1ccc2c(N[C@H]3CC[C@@H](Nc4ccnc5cc(Cl)ccc45)CC3)ccnc2c1 [Example 5, cis-N,N'-Bis-(7-chloroquinolin-4-yl)-cyclohexane-1,4-diamine] | 3.2 (≈ 0.00732 µM) | 3.9 (≈ 0.00892 µM) | 3.4 (≈ 0.00777 µM) | 9 (≈ 0.0206 µM) | 4.4 (≈ 0.0101 µM) | 6.8 (≈ 0.0155 µM) | 7.7 (≈ 0.0176 µM) | 5.1 (≈ 0.0117 µM) | 4.8 (≈ 0.011 µM) | 6.5 (≈ 0.0149 µM) | 2.1 | 98 | 99.9 | 2.6 (≈ 0.00594 µM) | 2.3 (≈ 0.00526 µM) | ED50 (Plasmodium berghei; [16]): 1.5 mg/kg
7 | Clc1ccc2c(NCc3ccccc3CNc3ccnc4cc(Cl)ccc34)ccnc2c1 [Example 1, (7-Chloroquinolin-4-yl)-[2-(7-chloroquinolin-4-yl-aminomethyl)-benzyl]-amin] | 7.5 (≈ 0.0163 µM) | 6.6 (≈ 0.0144 µM) | 6.5 (≈ 0.0141 µM) | 7 (≈ 0.0152 µM) | 6.9 (≈ 0.015 µM) | 4.7 (≈ 0.0102 µM) | 6.9 (≈ 0.015 µM) | 5.4 (≈ 0.0118 µM) | 5.8 (≈ 0.0126 µM) | 4.9 (≈ 0.0107 µM) | 0.9 | 62 | 97 | 10.2 (≈ 0.0222 µM) | 3.6 (≈ 0.00784 µM) | –
8 | Clc1ccc2c(NCc3cccc(CNc4ccnc5cc(Cl)ccc45)c3)ccnc2c1 [Example 2, (7-Chloroquinolin-4-yl)-[3-(7-chloroquinolin-4-yl-aminomethyl)-benzyl]-amine] | 8.9 (≈ 0.0194 µM) | 12.5 (≈ 0.0272 µM) | 7.8 (≈ 0.017 µM) | 13.9 (≈ 0.0303 µM) | 15.8 (≈ 0.0344 µM) | 19 (≈ 0.0414 µM) | 17 (≈ 0.037 µM) | 26.3 (≈ 0.0573 µM) | 100 (≈ 0.218 µM) | 17 (≈ 0.037 µM) | 2.8 | 87 | 99 | 10.3 (≈ 0.0224 µM) | 13.3 (≈ 0.029 µM) | –
9 | C[C@H]1[C@@H](Nc2ccnc3cc(Cl)ccc23)CCC[C@H]1Nc1ccnc2cc(Cl)ccc12 [Example 8, cis,cis-N,N'-Bis-(7-chloroquinolin-4-yl)-2-methyl-cyclohexane-1,3-diamine] | 6.1 (≈ 0.0135 µM) | 6.1 (≈ 0.0135 µM) | 6.3 (≈ 0.014 µM) | 9.4 (≈ 0.0208 µM) | 6.4 (≈ 0.0142 µM) | 6.4 (≈ 0.0142 µM) | 8.8 (≈ 0.0195 µM) | 4.6 (≈ 0.0102 µM) | 5.6 (≈ 0.0124 µM) | 9.1 (≈ 0.0202 µM) | 1.3 | 66 | 67 | 7.7 (≈ 0.0171 µM) | 1.6 (≈ 0.00354 µM) | –
10 | Clc1ccc2c(NC3CCC(CC4CCC(Nc5ccnc6cc(Cl)ccc56)CC4)CC3)ccnc2c1 (stereo not shown) [Example 12, N,N'-Bis-(7-chloroquinolin-4-yl)-dicyclohexylmethane-4,4'-diamine] | 26.3 (≈ 0.0493 µM) | 19.4 (≈ 0.0364 µM) | – | 17.1 (≈ 0.032 µM) | 13.7 (≈ 0.0257 µM) | 13.3 (≈ 0.0249 µM) | 13 (≈ 0.0244 µM) | 7.2 (≈ 0.0135 µM) | 25 (≈ 0.0469 µM) | 21.6 (≈ 0.0405 µM) | 0.9 | – | – | 11.6 (≈ 0.0217 µM) | 17.8 (≈ 0.0334 µM) | IC50 [1, 18]: 13.7 ng/mL (≈ 0.0257 µM)
11 | Clc1ccc2c(NC/C=C/CNc3ccnc4cc(Cl)ccc34)ccnc2c1 [Example 13, N,N'-Bis-(7-chloroquinolin-4-yl)-2-butene-1,4-diamine] | – | – | – | – | – | – | 18.1 (≈ 0.0442 µM) | – | – | – | – | – | – | 30.8 (≈ 0.0752 µM) | – | –
